Patent US9353072B2, “Antimicrobial substituted thiazoles and methods of use” (Purdue Research Foundation, priority 2012, dated 2016)
Values after ≈ are worked out from the molar mass of the structure shown. Where two headings read alike, the source gives them in different places.

Key:
[1] = tested on: MRSA ATCC 43300; assay: MIC/MBC broth microdilution, MRSA ATCC 43300; format: cell-based, Staphylococcus aureus; settings: Staphylococcus aureus
Experimental: (§1) Determination of minimum inhibitory concentration (MIC). The MICs of the lead thiazole compound (compound 1a) and nine derivatives tested against all 18 MRSA strains were determined, in triplicate samples, using the broth microdilution method in accordance with the recommendations contained in the CLSI guidelines.

[2] = tested on: MRSA ATCC 700699 (NRS1, VISA); assay: MIC/MBC broth microdilution, NRS1 (ATCC 700699); format: cell-based; settings: Staphylococcus aureus
Experimental: as §1

[3] = tested on: VISA HIP07256 (NRS19); assay: MIC/MBC broth microdilution, NRS19 (VISA HIP07256); format: cell-based; settings: Staphylococcus aureus, Table 8, NRS19 (VISA); for MBC: read-out: MBC; for MIC: read-out: MIC
Experimental: as §1

[4] = tested on: VISA LIM 3 (NRS37); assay: MIC/MBC broth microdilution, NRS37 (VISA LIM 3); format: cell-based; settings: Staphylococcus aureus, Table 8, NRS37 (VISA); for MBC: read-out: MBC; for MIC: read-out: MIC
Experimental: as §1

[5] = tested on: NRS107; assay: MIC/MBC broth microdilution, NRS107; format: cell-based; settings: Staphylococcus aureus; for MBC: Table 8, read-out: MBC; for MIC: Table 8, read-out: MIC
Experimental: as §1

[6] = tested on: NRS119; assay: MIC/MBC broth microdilution, NRS119; format: cell-based; settings: Staphylococcus aureus
Experimental: as §1

[7] = tested on: MRSA USA400 (NRS123); assay: MIC/MBC broth microdilution, NRS123 (USA400); format: cell-based; settings: Staphylococcus aureus, Table 8, NRS123; for MBC: read-out: MBC; for MIC: read-out: MIC
Experimental: as §1

[8] = tested on: NRS194; assay: MIC/MBC broth microdilution, NRS194; format: cell-based; settings: Staphylococcus aureus; for MBC: Table 8, read-out: MBC; for MIC: Table 8, read-out: MIC
Experimental: as §1

[9] = tested on: MRSA NRS384 (USA300); assay: MIC/MBC broth microdilution, NRS384 (USA300); format: cell-based; settings: Staphylococcus aureus, Table 8, NRS384; for MBC: read-out: MBC; for MIC: read-out: MIC
Experimental: as §1

[10] = tested on: MRSA USA500 (NRS385); assay: MIC/MBC broth microdilution, NRS385 (USA500); format: cell-based; settings: Staphylococcus aureus, Table 8, NRS385; for MBC: read-out: MBC; for MIC: read-out: MIC
Experimental: as §1

[11] = tested on: VRSA (VRS10); assay: MIC/MBC broth microdilution, VRSA (VRS10); format: cell-based, Staphylococcus aureus; settings: Staphylococcus aureus, Table 7, VRSA (VRS10); for MBC: read-out: Minimum Bactericidal Concentration; for MIC: read-out: Minimum Inhibitory Concentration
Experimental: as §1

[12] = Table 6, MRSA ATCC 43300, 128 μM down to 1.0 μM, 20 hours, read-out: MIC
[13] = Table 6, MRSA ATCC 43300, plating on TSA, 20 hour incubation, read-out: MBC
[14] = Table 7, MRSA (ATCC 43300), read-out: Minimum Bactericidal Concentration
[15] = Table 7, MRSA (ATCC 43300), read-out: Minimum Inhibitory Concentration
[16] = Table 8, ATCC 43300, read-out: MBC
[17] = Table 8, ATCC 43300, read-out: MIC
[18] = Table 7, VISA (NRS1), read-out: Minimum Bactericidal Concentration
[19] = Table 7, VISA (NRS1), read-out: Minimum Inhibitory Concentration
[20] = Table 8, NRS1 (VISA), read-out: MBC
[21] = Table 8, NRS1 (VISA), triplicates, 20 hours, read-out: MIC
[22] = NRS 119 / VISA, Table 7, VISA (NRS119), read-out: Minimum Bactericidal Concentration
[23] = NRS 119 / VISA, Table 7, VISA (NRS119), read-out: Minimum Inhibitory Concentration

Structure (SMILES): CC(=O)c1ccc(-c2ccc(-c3nc(C)c(/C(C)=N\NC(=N)N)s3)cc2)cc1 [Compound M11, (Z)-2-(1-(2-(4′-acetyl-[1,1′-biphenyl]-4-yl)-4-methylthiazol-5-yl)ethylidene)hydrazinecarboximidamide]
- MIC [1, 12]: 4 µM (≈ 1.57 µg/mL)
- MBC [1, 13]: 8 µM (≈ 3.13 µg/mL)
- MBC [1, 14]: 8 µM (≈ 3.13 µg/mL)
- MIC [1, 15]: 8 µM (≈ 3.13 µg/mL)
- MBC [1, 16]: 16 µM (≈ 6.26 µg/mL)
- MIC [1, 17]: 16 µM (≈ 6.26 µg/mL)
- MBC [2, 18]: 32 µM (≈ 12.5 µg/mL)
- MIC [2, 19]: 8 µM (≈ 3.13 µg/mL)
- MBC [2, 20]: 16 µM (≈ 6.26 µg/mL)
- MIC [2, 21]: 16 µM (≈ 6.26 µg/mL)
- MBC [3]: 32 µM (≈ 12.5 µg/mL)
- MIC [3]: 32 µM (≈ 12.5 µg/mL)
- MBC [4]: 16 µM (≈ 6.26 µg/mL)
- MIC [4]: 8 µM (≈ 3.13 µg/mL)
- MBC [5]: 32 µM (≈ 12.5 µg/mL)
- MIC [5]: 16 µM (≈ 6.26 µg/mL)
- MBC [6, 22]: 32 µM (≈ 12.5 µg/mL)
- MIC [6, 23]: 16 µM (≈ 6.26 µg/mL)
- MBC ([6]; Table 8, NRS119, read-out: MBC): 32 µM (≈ 12.5 µg/mL)
- MIC ([6]; Table 8, NRS119, read-out: MIC): 16 µM (≈ 6.26 µg/mL)
- MBC [7]: 16 µM (≈ 6.26 µg/mL)
- MIC [7]: 16 µM (≈ 6.26 µg/mL)
- MBC [8]: 16 µM (≈ 6.26 µg/mL)
- MIC [8]: 16 µM (≈ 6.26 µg/mL)
- MBC [9]: 16 µM (≈ 6.26 µg/mL)
- MIC [9]: 16 µM (≈ 6.26 µg/mL)
- MBC [10]: 16 µM (≈ 6.26 µg/mL)
- MIC [10]: 16 µM (≈ 6.26 µg/mL)
- MBC [11]: 16 µM (≈ 6.26 µg/mL)
- MIC [11]: 16 µM (≈ 6.26 µg/mL)

Structure (SMILES): C/C(=N/NC(=N)N)c1sc(-c2ccc(-c3ccc(F)cc3)cc2)nc1C [Compound M12, (Z)-2-(1-(2-(4′-fluoro-[1,1′-biphenyl]-4-yl)-4-methylthiazol-5-yl)ethylidene)hydrazinecarboximidamide]
- MIC [1, 12]: 4 µM (≈ 1.47 µg/mL)
- MBC [1, 13]: > 16 µM
- MBC [1, 14]: 16 µM (≈ 5.88 µg/mL)
- MIC [1, 15]: 4 µM (≈ 1.47 µg/mL)
- MBC [1, 16]: 16 µM (≈ 5.88 µg/mL)
- MIC [1, 17]: 16 µM (≈ 5.88 µg/mL)
- MBC [2, 18]: 8 µM (≈ 2.94 µg/mL)
- MIC [2, 19]: 4 µM (≈ 1.47 µg/mL)
- MBC [2, 20]: 8 µM (≈ 2.94 µg/mL)
- MIC [2, 21]: 8 µM (≈ 2.94 µg/mL)
- MBC [3]: 16 µM (≈ 5.88 µg/mL)
- MIC [3]: 16 µM (≈ 5.88 µg/mL)
- MBC [4]: 16 µM (≈ 5.88 µg/mL)
- MIC [4]: 8 µM (≈ 2.94 µg/mL)
- MBC [5]: 16 µM (≈ 5.88 µg/mL)
- MIC [5]: 8 µM (≈ 2.94 µg/mL)
- MBC [6, 22]: 16 µM (≈ 5.88 µg/mL)
- MIC [6, 23]: 16 µM (≈ 5.88 µg/mL)
- MBC ([6]; Table 8, NRS119, read-out: MBC): 32 µM (≈ 11.8 µg/mL)
- MIC ([6]; Table 8, NRS119, read-out: MIC): 16 µM (≈ 5.88 µg/mL)
- MBC [7]: 32 µM (≈ 11.8 µg/mL)
- MIC [7]: 16 µM (≈ 5.88 µg/mL)
- MBC [8]: 32 µM (≈ 11.8 µg/mL)
- MIC [8]: 16 µM (≈ 5.88 µg/mL)
- MBC [9]: 16 µM (≈ 5.88 µg/mL)
- MIC [9]: 16 µM (≈ 5.88 µg/mL)
- MBC [10]: 16 µM (≈ 5.88 µg/mL)
- MIC [10]: 16 µM (≈ 5.88 µg/mL)
- MBC [11]: 64 µM (≈ 23.5 µg/mL)
- MIC [11]: 8 µM (≈ 2.94 µg/mL)

Structure (SMILES): C/C(=N/NC(=N)N)c1sc(-c2ccc(-c3ccc(C(F)(F)F)cc3)cc2)nc1C [Compound M13]
- MIC [1, 12]: 8 µM (≈ 3.34 µg/mL)
- MBC [1, 13]: 16 µM (≈ 6.68 µg/mL)
- MBC [1, 14]: 16 µM (≈ 6.68 µg/mL)
- MIC [1, 15]: 8 µM (≈ 3.34 µg/mL)
- MBC [1, 16]: 8 µM (≈ 3.34 µg/mL)
- MIC [1, 17]: 8 µM (≈ 3.34 µg/mL)
- MBC [2, 18]: 8 µM (≈ 3.34 µg/mL)
- MIC [2, 19]: 4 µM (≈ 1.67 µg/mL)
- MBC [2, 20]: 8 µM (≈ 3.34 µg/mL)
- MIC [2, 21]: 8 µM (≈ 3.34 µg/mL)
- MBC [3]: 8 µM (≈ 3.34 µg/mL)
- MIC [3]: 8 µM (≈ 3.34 µg/mL)
- MBC [4]: 8 µM (≈ 3.34 µg/mL)
- MIC [4]: 8 µM (≈ 3.34 µg/mL)
- MBC [5]: 16 µM (≈ 6.68 µg/mL)
- MIC [5]: 8 µM (≈ 3.34 µg/mL)
- MBC [6, 22]: 32 µM (≈ 13.4 µg/mL)
- MIC [6, 23]: 16 µM (≈ 6.68 µg/mL)
- MBC ([6]; Table 8, NRS119, read-out: MBC): 16 µM (≈ 6.68 µg/mL)
- MIC ([6]; Table 8, NRS119, read-out: MIC): 16 µM (≈ 6.68 µg/mL)
- MBC [7]: 32 µM (≈ 13.4 µg/mL)
- MIC [7]: 16 µM (≈ 6.68 µg/mL)
- MBC [8]: 32 µM (≈ 13.4 µg/mL)
- MIC [8]: 16 µM (≈ 6.68 µg/mL)
- MBC [9]: 16 µM (≈ 6.68 µg/mL)
- MIC [9]: 16 µM (≈ 6.68 µg/mL)
- MBC [10]: 8 µM (≈ 3.34 µg/mL)
- MIC [10]: 8 µM (≈ 3.34 µg/mL)
- MBC [11]: 16 µM (≈ 6.68 µg/mL)
- MIC [11]: 4 µM (≈ 1.67 µg/mL)

Structure (SMILES): C/C(=N/NC(=N)N)c1sc(-c2ccc(-c3cccc4ccccc34)cc2)nc1C [Compound M14]
- MIC [1, 12]: 4 µM (≈ 1.6 µg/mL)
- MBC [1, 13]: 8 µM (≈ 3.2 µg/mL)
- MBC [1, 14]: 16 µM (≈ 6.39 µg/mL)
- MIC [1, 15]: 8 µM (≈ 3.2 µg/mL)
- MBC [1, 16]: 4 µM (≈ 1.6 µg/mL)
- MIC [1, 17]: 4 µM (≈ 1.6 µg/mL)
- MBC [2, 18]: 4 µM (≈ 1.6 µg/mL)
- MIC [2, 19]: 2 µM (≈ 0.799 µg/mL)
- MBC [2, 20]: 4 µM (≈ 1.6 µg/mL)
- MIC [2, 21]: 4 µM (≈ 1.6 µg/mL)
- MBC [3]: 4 µM (≈ 1.6 µg/mL)
- MIC [3]: 4 µM (≈ 1.6 µg/mL)
- MBC [4]: 4 µM (≈ 1.6 µg/mL)
- MIC [4]: 4 µM (≈ 1.6 µg/mL)
- MBC [5]: 4 µM (≈ 1.6 µg/mL)
- MIC [5]: 4 µM (≈ 1.6 µg/mL)
- MBC [6, 22]: 16 µM (≈ 6.39 µg/mL)
- MIC [6, 23]: 4 µM (≈ 1.6 µg/mL)
- MBC ([6]; Table 8, NRS119, read-out: MBC): 4 µM (≈ 1.6 µg/mL)
- MIC ([6]; Table 8, NRS119, read-out: MIC): 4 µM (≈ 1.6 µg/mL)
- MBC [7]: 4 µM (≈ 1.6 µg/mL)
- MIC [7]: 4 µM (≈ 1.6 µg/mL)
- MBC [8]: 4 µM (≈ 1.6 µg/mL)
- MIC [8]: 4 µM (≈ 1.6 µg/mL)
- MBC [9]: 4 µM (≈ 1.6 µg/mL)
- MIC [9]: 4 µM (≈ 1.6 µg/mL)
- MBC [10]: 8 µM (≈ 3.2 µg/mL)
- MIC [10]: 4 µM (≈ 1.6 µg/mL)
- MBC [11]: 8 µM (≈ 3.2 µg/mL)
- MIC [11]: 8 µM (≈ 3.2 µg/mL)
